The results in this text go back to US6664419B1, “Method and device for purifying substances by means of crystallization” (Stockhausen GmbH & Co. KG, priority 1999, dated 2003).

The nature of the series: Solubility limit of impurity in molten acrylic acid. Format: physicochemical. The source says:
In addition to other impurities, acrylic acid pre-purified by distillation may contain maleic acid, its anhydride, and phenothiazine which precipitate from the molten material at concentrations of more than 4% (maleic acid) and 1.5% (phenothiazine), respectively. The respective amounts of solid precipitating during a crystallization process as a result of surpassing the solubility limit can be inferred from the following Examples (Table 1 and 2).
The solubility of maleic acid in acrylic acid is about 4%. The residue (13.2 kg) contains 20.4% or 2.7 kg of maleic acid, 2.4 kg of which precipitates as a solid as a result of surpassing the solubility limit.

Molecules are shown by their SMILES. Like-named read-outs stand apart in the source and are kept apart here.

On to `c1ccc2c(c1)Nc1ccccc1S2` [PTZ, phenothiazine], for which the “solubility in acrylic acid” value (in acrylic acid melt / mother liquor, precipitates above this concentration) is reported as “about 1.5%”.

Take `O=C(O)/C=C\C(=O)O` [maleic acid]: the “solubility in acrylic acid” value was “about 4%”.
